Measurements as given in article PMC9906638, “AlphaFold accelerates artificial intelligence powered drug discovery: efficient discovery of a novel CDK20 small molecule inhibitor” (Chemical Science, 2023).
Like-named read-outs stand apart in the source and are kept apart here.

What was measured:
CDK20 [1] = conditions: cited from earlier work
CDK20/CycT1 [2] = target: T1, CDK20/CycT1 (Homo sapiens, UniProt Q8IZL9); parameters: method as in doi:10.1158/1538-7445.AM2016-2821
T1 construct: purchased Reaction Biology Corp. (33PanQinase Activity Assay service)
T1 sequence (Q8IZL9 whole entry): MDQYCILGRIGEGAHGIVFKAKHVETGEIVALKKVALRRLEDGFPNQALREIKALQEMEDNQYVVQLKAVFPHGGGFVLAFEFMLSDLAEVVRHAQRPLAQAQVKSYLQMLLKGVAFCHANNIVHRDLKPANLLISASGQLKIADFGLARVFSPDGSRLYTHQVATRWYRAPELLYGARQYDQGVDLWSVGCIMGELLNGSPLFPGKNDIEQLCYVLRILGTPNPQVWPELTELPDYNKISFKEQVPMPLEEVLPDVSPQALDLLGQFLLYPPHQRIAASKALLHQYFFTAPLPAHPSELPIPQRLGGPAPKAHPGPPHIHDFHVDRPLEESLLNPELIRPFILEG
T1 sequence (O60563 whole entry partner): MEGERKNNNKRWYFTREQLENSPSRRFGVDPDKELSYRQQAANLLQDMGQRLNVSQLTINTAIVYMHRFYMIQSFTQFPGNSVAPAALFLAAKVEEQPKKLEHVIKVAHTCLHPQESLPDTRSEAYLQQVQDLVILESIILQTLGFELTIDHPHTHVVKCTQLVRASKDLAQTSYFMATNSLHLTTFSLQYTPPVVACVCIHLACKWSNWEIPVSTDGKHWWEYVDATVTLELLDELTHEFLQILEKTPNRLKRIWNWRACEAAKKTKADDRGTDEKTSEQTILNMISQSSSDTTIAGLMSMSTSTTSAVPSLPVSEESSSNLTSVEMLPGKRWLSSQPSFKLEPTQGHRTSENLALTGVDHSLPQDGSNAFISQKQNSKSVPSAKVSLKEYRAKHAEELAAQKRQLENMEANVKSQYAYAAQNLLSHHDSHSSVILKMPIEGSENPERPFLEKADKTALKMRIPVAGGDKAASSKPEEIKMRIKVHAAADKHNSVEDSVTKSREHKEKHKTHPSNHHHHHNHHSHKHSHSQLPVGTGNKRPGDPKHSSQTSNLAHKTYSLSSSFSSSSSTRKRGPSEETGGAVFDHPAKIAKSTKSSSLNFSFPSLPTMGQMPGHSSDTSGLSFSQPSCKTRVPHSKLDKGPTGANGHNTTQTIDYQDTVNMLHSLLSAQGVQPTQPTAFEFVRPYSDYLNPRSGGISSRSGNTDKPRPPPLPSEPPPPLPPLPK

CDK20 [3] = target: T2, CDK20 (Homo sapiens, UniProt Q8IZL9); test: CDK20 human CMGC kinase binding assay (KINOMEscan); conditions: for Kd: CDK20 kinase binding assay, mean ± SD of three independent experiments; for fold improvement in binding affinity compared to ISM042-2-001: ratio of Kd values
T2 construct: purchased DiscoverX/Eurofins (KINOMEscan service); host or cells: HEK-293
T2 sequence (Q8IZL9 whole entry): as the sequence (Q8IZL9 whole entry) above
Description: CDK20 human CMGC kinase binding assay
The assay was available as a product of the KINOMEscan service from DiscoverX/Eurofins. In brief, CDK20 proteins were produced in HEK-293 cells and subsequently tagged with DNA for qPCR detection. […] The liganded beads were blocked with excess biotin and washed with blocking buffer (SeaBlock (Pierce), 1% BSA, 0.05% Tween 20, and 1 mM DTT) to remove the unbound ligand and to reduce non-specific binding. […] Binding constants (Kds) were determined using an 11-point 3-fold compound dilution series with three DMSO control points. […] The compounds were then diluted directly into the assays such that the final concentration of DMSO was 0.9%. All reactions were performed in polypropylene 384-well plates. Each has a final volume of 0.02 ml. […] The kinase concentration in the eluates was measured by qPCR. Kds were calculated with a standard dose–response curve. The curves were fitted using a non-linear least squares fit with the Levenberg–Marquardt algorithm.

CDK20/CycT1 [4] = target: T1, CDK20/CycT1; test: CDK20 kinase activity assay (radiometric 33PanQinase); type: biochemical
Description: CDK20 kinase activity assay
A radiometric protein kinase assay ([33]PanQinase® ActivityAssay, available as a service product from Reaction Biology Corp.) was used for measuring the kinase activity of the CDK20 kinases. This assay was performed in 96-well FlashPlates™ from PerkinElmer (Boston, MA, USA) in a 50 μl reaction volume. The reaction cocktail was pipetted in four steps in the following order: (a) 25 μl of assay buffer (standard buffer/[γ-^33P]-ATP); (b) 10 μl of ATP solution (in H2O); (c) 5 μl of test compound (in 10% DMSO); (d) 10 μl of enzyme/substrate mixture. The assay for CDK20 kinase contained 70 mM HEPES-NaOH pH 7.5, 3 mM MgCl2, 3 mM MnCl2, 3 μM Na-orthovanadate, 1.2 mM DTT, 50 μg ml^−1 PEG20000, 1.0 μM ATP [γ-[33]P],-ATP (approx. 7 × 10^5 cpm per well), and 200 ng/50 μl kinase protein, and the substrate was 4.0 μg/50 μl. The compounds were dissolved to 1 × 10^−3 M in volumes of 100% DMSO. The 1 × 10^−3 M stock solutions were subjected to a serial, semi-logarithmic dilution using 100% DMSO as a solvent. The final volume of the assay was 50 μL All compounds were tested at 10 final assay concentrations in the range from 1 × 10^−5 M to 3 × 10^−10 M. The final DMSO concentration in the reaction cocktails was 1% in all cases. The “low control” was defined as the value that reflects unspecific binding of radioactivity to the plate in the absence of a protein kinase but in the presence of the substrate. The “high control” was defined as the full activity in the absence of any inhibitor. The difference between high and low controls was taken as 100% activity. As part of the data evaluation the low control value from a particular plate was subtracted from the high control value as well as from all 80 “compound values” of the corresponding plate.
The residual activities for each concentration and the compound’s IC50 values were calculated using Quattro Workflow V3.1.1 (Quattro Research GmbH, Munich, Germany; http://www.quattro-research.com/). […] The fitting method used was a least-squares fit.

Huh7 = test: Cell viability assay (Celltiter Glo), Huh7; type: cell-based; conditions: Homo sapiens, Huh-7, 72 h; HCC cell line with CDK20 overexpression; 3 days incubation; read-out: anti-proliferation IC50 in Huh7
Description: (§1) The Huh7 and HEK293 cells were maintained in DMEM with 10% FBS and 1% streptomycin and penicillin in 5% CO2. When the confluence of these two cell lines reached 80–90%, cells were harvested and resuspended, and the proper cells were added into a 384-well plate as below: Huh-7: 650 cells per well; HEK-293 : 300 cells per well. The final testing concentrations of the compounds were: 10 000, 3333, 1111, 370, 123, 41.2, 13.7, 4.57, 1.52, and 0.51 nM. The cells were incubated in a 37 °C, 5% CO2 incubator for 3 days, and then a reagent was added (Celltiter Glo assay kit) to the cells for testing and a Multiplate reader was used to record the chemiluminescence value. And GraphPad Prism 9 software was used to calculate IC50 and plot the effect–dose curve of compounds. The assays were conducted at Pharmaron Inc. in a fee-for-service mode.

HEK293 = test: Cell viability assay (Celltiter Glo), counter screen HEK293; type: cell-based; conditions: Homo sapiens, HEK293, 72 h; counter screen cell line; 3 days incubation; read-out: anti-proliferation IC50 in HEK293
Description: as §1

[5] = read-out: CDK20/CycT1 IC50; poster of Mueller et al.; cited from earlier work
[6] = CDK20 kinase activity assay, 1.0 μM ATP, values with SD from three independent experiments, read-out: CDK20/CycT1 IC50

| SMILES | Kd (CDK20 [3]) [µM] | IC50 (CDK20/CycT1 [4]; [6]) [µM] | further results |
| --- | --- | --- | --- |
| O=C(Nc1ccc2cc(C(=O)Nc3nccs3)ccc2c1)c1ccc(Cl)c(Cl)c1 [AAPK-25] |  |  | Kd (CDK20 [1]): 8.02 µM |
| CC(C)(CO)CNCc1ccc(Nc2ncc(SCc3ncc(C(C)(C)C)o3)s2)nc1 [BMS-357075] |  |  | Kd (CDK20 [1]; disclosed by Eurofins): 0.056 µM |
| CCc1cnn2c(NCc3ccc[n+]([O-])c3)cc(N3CCCC[C@H]3CCO)nc12 [Dinaciclib] |  |  | IC50 (CDK20/CycT1 [2]; [5]): 2.86 µM |
| CNC(=O)c1cc(Nc2ncc3ccccc3n2)c[nH]1 [ISM042-2-001] | 9.2 ± 0.5 | > 6 |  |
| Cn1cc(Oc2ccnc(NC3(C)CC3)c2)cn1 [ISM042-2-004] | > 30 |  |  |
| NC(=O)c1cc(N2CCC(F)(F)CC2)nc(-c2cc[nH]n2)n1 [ISM042-2-007] | > 30 |  |  |
| c1cc(-n2cc(C3COC3)nn2)cc(NC2CC2)n1 [ISM042-2-009] | > 30 |  |  |
| CCc1ccc(-c2cccc3nc(NC4CCCC4)[nH]c23)[nH]c1=O [ISM042-2-015] | > 30 |  |  |
| Cc1ccnc(-n2cncc2N2CC3(COC3)C2)n1 [ISM042-2-019] | > 30 |  |  |
| c1cc(-c2nc3cnncc3s2)nc(N[C@H]2CCNC2)n1 [ISM042-2-025] | > 30 |  |  |
| CNC(=O)c1cc(Nc2ncc3ccc(-c4cn[nH]c4)cc3n2)c[nH]1 [ISM042-2-048] | 0.567 ± 0.256 | 0.0334 ± 0.0226 | fold improvement in binding affinity compared to ISM042-2-001 (CDK20 [3]): 15 fold; IC50 (Huh7): 0.209 ± 0.0033 µM; IC50 (HEK293): 1.71 ± 0.67 µM |
| CNC(=O)c1cc(Nc2ncc3ccc(=O)n(C4CCCC4)c3n2)c[nH]1 [ISM042-2-049] | 0.36 ± 0.0141 | 0.468 ± 0.006 | fold improvement in binding affinity compared to ISM042-2-001 (CDK20 [3]): 24 fold |
| CNC(=O)c1cccc(Nc2ncc3ccccc3n2)c1 [ISM042-2-050] | 5.33 ± 1.19 | 7.1 ± 0.478 |  |
| CN(C)CCNC(=O)c1cc(Nc2ncc3ccccc3n2)c[nH]1 [ISM042-2-052] | 18.7 ± 6.34 |  | IC50 (CDK20/CycT1 [4]): > 6 µM |
| CN1CCN(CCNC(=O)c2cc(Nc3ncc4ccccc4n3)c[nH]2)CC1 [ISM042-2-053] | 17.7 ± 4.03 | 7.8 ± 0.125 |  |
| CN1CCC(NC(=O)c2cc(Nc3ncc4ccccc4n3)c[nH]2)CC1 [ISM042-2-055] | 14.3 ± 1.7 | 4.08 ± 0.575 |  |
| CC(=O)c1c(C)c2cnc(Nc3ccc(N4CCNCC4)cn3)nc2n(C2CCCC2)c1=O [Palbociclib] |  |  | IC50 (CDK20/CycT1 [2]; poster of Mueller et al.; read-out: CDK20/CycT1 IC50; cited from earlier work): 1.26 µM |
| CC[C@H](CO)Nc1nc(NCc2ccccc2)c2ncn(C(C)C)c2n1 [Roscovitine] |  |  | IC50 (CDK20/CycT1 [2]; [5]): 8.68 µM |
